Measurements published in patent US8377913B2, “Vitamin D receptor activators and methods of making” (AbbVie Inc., priority 2007, dated 2013).

Tests used:
Assay type in all cases: cell-based
[1] = system: Renin mRNA in As4.1 cells; assay: Renin mRNA in As4.1 cells transfected with pcDNA-hVDR (real-time RT-PCR)
Experimental: As4.1 cells (ATCC, Manassas, Va.) were cultured in Dulbecco's Modified Eagle Medium DMEM (commercially available from Invitrogen, Carlsbad, Calif.) with 10% fetal bovine serum at 37° C. in a humidified 5% CO2-95% air atmosphere. C3;ells were transfected with the pcDNA-hVDR plasmid (provided by Yan Chun Li, University of Chicago) by LIPOFECTAMINE™ 2000 (Invitrogen, Carlsbad, Calif.). siRNA was transfected with the pcDNA-hVDR plasmid by LIPOFECTAMINE™ 2000 according to the manufacturer's protocol. Twenty-four hours after transfection, cells were treated with test agents.
Real-time reverse transcription-PCR was performed with a MyiQ Real-time PCR Detection System (commercially available from BioRad, Hercules, Calif.). […] TaqMan™ probes that were 5′ labeled with the reporter 6-carboxyfluorescein (FAM) and 3′ labeled with the quencher tetramethylrhodamine (TAMRA) were used and the primer and probe sets were obtained from Applied Biosystems (Foster City, Calif.). Temperature conditions consisted of a step of 5 minutes at 95° C., followed by 45 cycles of 60° C. for 1 minute and 95° C. for 15 seconds. Data was collected during each extension phase of the PCR reaction and analyzed with the accompanying software package (BioRad, Hercules, Calif.). Threshold cycles were determined for each gene.

[2] = system: Thrombospondin mRNA in human coronary artery smooth muscle cells (CASMC); assay: Thrombospondin mRNA in CASMC; details: for IC50: Homo sapiens
Experimental: (§1) Primary culture of human coronary artery smooth muscle cells (CASMC) (commercially available from Cambrex, Walkersville, Md.) were grown in smooth muscle growth medium SmGM-2 (commercially available from Lonza Bioscience) containing 5.5 mM glucose, 5% FBS, 50 μg/ml gentamicin, 50 ng/ml amphotericin-B, 5 μg/ml insulin, 2 ng/ml human recombinant fibroblast growth factor (hFGF), and 0.5 ng/ml human recombinant epidermal growth factor (hEGF) at 37° C. in a humidified 5% CO2-95% air atmosphere. Cells were grown to >80% confluence and used within five passages.
(§2) Real-time reverse transcription-PCR was performed with a MyiQ Real-Time PCR Detection System (BioRad, Hercules, Calif.). Each sample has a final volume of 25 μl containing 100 ng of cDNA, […] each of the forward and reverse PCR primers and […] of the TaqMan™ probe for the gene of interest (Applied Biosystems, Foster City, Calif.). Temperature conditions consisted of a step of 5 minutes at 95° C., followed by 40 cycles of 60° C. for 1 minute and 95° C. for 15 seconds. Data was collected during each extension phase of the PCR reaction and analyzed with the software package (BioRad, Hercules, Calif.). Threshold cycles were determined for each gene. […]

[3] = system: PAI-1 mRNA in human coronary artery smooth muscle cells (CASMC); assay: PAI-1 mRNA in CASMC; details: for IC50: Homo sapiens
Experimental: as §1, §2

[4] = system: VDR (VDRE-luciferase-reporter construct); assay: VDRE Reporter Gene Assay in HEK cells with stable expression of VDR; details: Homo sapiens, HEK293, 24 hours
Experimental: Compound activity was also assessed by looking at a Vitamin D Response Element (VDRE) reporter gene assay, Human Embryonic Kidney cells (HEK cells) with a stable expression of VDR were cultured in 96-well plates at ˜4×10^5 cells/mL (100 μL/well) in DMEM medium containing 10% fetal calf serum. Cells were transfected with 0.2 μg per well of a VDRE-luciferase-reporter construct (from Y. Li, University of Chicago) and then treated with test agents at indicated concentrations for 24 hours. The luciferase activity was then measured following the manufacturer's instructions (Promega, Madison, Wis.).

[5] = system: Human promyelocytic leukemia (HL60) cells; assay: HL-60 Differentiation; details: HL-60, 96 h, four days incubation, NBT, absorbance 570 nm
Experimental: Human promyelocytic leukemia (HL60) cells were obtained from the American Type Culture Collection (ATCC Cat. # CCL-240, Manassas, Va.). Cells were maintained in RPMI 1640 medium (commercially available from Invitrogen, Carlsbad, Calif.) containing 10% fetal bovine serum (commercially available from Invitrogen, Carlsbad, Calif.) at 37° C. with 5% CO2. Cells were passaged weekly and were not allowed to become >90% confluent. For the assay, cells were plated at 5×10^5 cells per well in 200 uL media. Test compounds were diluted in media in concentrations between 10^−6-10^−10 M and then added to the appropriate wells. Cells were then incubated for four days at 37° C. in 5% CO2 atmosphere. After incubation, media was aspirated from each well and 75 uL of NBT solution (nitroblue tetrazolinium: 200 ng/mL PMA (phorbol 12-myrystate 13-acetate) and 2 mg/ml NBT (nitroblue tetrazolium) in distilled H2O) was added to each well followed by further incubation for 2 hours at 37° C. Following incubation, 150 uL lysis buffer (225 mL dimethylformamide, 67.5 g SDS). PMA stock solution (2 mg/ml in ethanol) was added to each well and the plate was allowed to sit at room temperature for 4 hours. HL-60 cell differentiation was assayed, Effect of each compound on cell growth was examined as a function of time; absorbance in each well was measured at 570 nm.

[6] = system: Thrombomodulin mRNA in human coronary artery smooth muscle cells (CASMC); assay: Thrombomodulin mRNA in CASMC; details: for EC50: Homo sapiens
Experimental: as §1, §2

Row | Structure (SMILES) | IC50 [1] [nM] | IC50 [2] [nM] | PAI-1 mRNA in CASMC IC50 [3] | EC50 [4] [nM] | EC50 [5] [nM] | Thrombomodulin mRNA in CASMC EC50 [6] | IC50 [3] [nM] | EC50 [6] [nM] | Renin mRNA in AS4.1 IC50 [1] | Thrombospondin mRNA in CASMC IC50 [2]
1 | C=C1[C@H](O)CC(=C/C=C2\CCC[C@]3(C)[C@@H]([C@H](C)COC(=O)C(C)(C)OC(C)=O)CC[C@@H]23)C[C@H]1O [Example 6, (2S)-2-[(1R,3R,7E,17β)-1,3-dihydroxy-2-methylene-9,10-secoestra-5,7-dien-17-yl]propyl 2-(acetyloxy)-2-methyl propanoate] | 18.6 | 1.3 | inactive | 1.3 | 12 | inactive |  |  |  | 
2 | C=C1[C@H](O)CC(=C/C=C2\CCC[C@]3(C)[C@@H]([C@H](C)OCCC(C)(C)O)CC[C@@H]23)C[C@H]1O [Example 8, (1R,3R,7E,17β)-17-[(1S)-1-(3-hydroxy-3-methylbutoxy)ethyl]-2-methylene-9,10-secoestra-5,7-diene-1,3-diol] | 0.3 | 0.05 |  | < 0.01 | 31.5 |  | 0.02 | 39.3 |  | 
3 | COC(C[C@@H](C)C(C)(C)OC)[C@@H](C)[C@H]1CC[C@H]2/C(=C/C=C3C[C@@H](O)C[C@H](O)C3)CCC[C@]12C (stereo partly drawn) [Example 11, (1R,3R,7E,17β)-17-[(1S,4R)-2,5-dimethoxy-1,4,5-trimethylhexyl]-9,10-secoestra-5,7-diene-1,3-diol] | 0.002 | 0.01 |  | 182 | 310 |  | 0.01 | 28.4 |  | 
4 | C=C1[C@H](O)CC(=C/C=C2\CCC[C@]3(C)[C@@H]([C@H](C)COc4ccccc4)CC[C@@H]23)C[C@H]1O [Example 12, (1R,3R,7E,17β)-2-methylene-17-[(1S)-1-methyl-2-phenoxyethyl]-9,10-secoestra-5,7-diene-1,3-diol] | 0.2 | 0.02 |  | 16.9 | 0.2 |  | 11.5 | 0.1 |  | 
5 | C=C1[C@H](CO)C/C(=C\C=C2/CCC[C@]3(C)[C@@H]([C@H](C)CCCC(C)(C)O)CC[C@@H]23)C[C@H]1O [Example 16, (1R,3R,5E,7E,17β)-17-[(1R)-5-hydroxy-1,5-dimethylhexyl]-3-(hydroxymethyl)-2-methylene-9,10-secoestra-5,7-dien-1-ol] | 14.7 |  |  | 71.7 | 43 |  |  |  |  | 
6 | C=C1[C@H](CO)C/C(=C\C=C2/CCC[C@]3(C)[C@@H]([C@H](C)OCCC(C)(C)O)CC[C@@H]23)C[C@H]1O [Example 17, (1R,3R,5E,7E,17β)-3-(hydroxymethyl)-17-[(1S)-1-(3-hydroxy-3-methylbutoxy)ethyl]-2-methylene-9,10-secoestra-5,7-dien-1-ol] | 2.2 |  |  | 153 | 92.5 |  |  |  |  | 

Next, values leading:

Row | IC50 [1] [nM] | IC50 [2] [nM] | PAI-1 mRNA in CASMC IC50 [3] | EC50 [4] [nM] | EC50 [5] [nM] | Thrombomodulin mRNA in CASMC EC50 [6] | IC50 [3] [nM] | EC50 [6] [nM] | Renin mRNA in AS4.1 IC50 [1] | Thrombospondin mRNA in CASMC IC50 [2] | Structure (SMILES)
7 | 0.1 | 0.1 |  | 12.2 | 12.5 |  | 0.1 | 0.6 |  |  | C=C1[C@H](O)CC(=C/C=C2\CCC[C@]3(C)[C@@H]([C@H](C)CC[C@H](C)C(C)C)CC[C@@H]23)C[C@H]1O [Example 7, (1R,3R,7E)-2-methylene-17-[(1R,4S)-1,4,5-trimethylhexyl]-9,10-secoestra-5,7-diene-1,3-diol]
8 |  | 0.3 |  | > 10000 | 434 |  | 0.1 | 0.1 | inactive |  | CC(C)[C@@H](C)CC[C@@H](C)[C@H]1CC[C@H]2/C(=C/C=C3C[C@@H](O)C[C@H](O)C3)CCC[C@]12C [Example 9, (1R,3R,7E)-17-[(1R,4S)-1,4,5-trimethylhexyl]-9,10-secoestra-5,7-diene-1,3-diol]
9 | 3.9 | 0.01 |  | 150 | 621 |  | 0.04 | 0.2 |  |  | C=C1/C(=C\C=C2/CCC[C@]3(C)[C@@H]([C@H](C)C(C[C@@H](C)C(C)(C)OC)OC)CC[C@@H]23)C[C@@H](O)C[C@@H]1O (stereo partly drawn) [Example 10, (1S,3R,5Z,7E,24R)-22,25-dimethoxy-9,1 0-secoergosta-5,7,10-triene-1,3-diol]
10 | 0.9 | 0.03 |  | 276 | 52 |  | 0.01 | 80.2 |  |  | C=C1[C@H](O)C/C(=C/C=C2\CCC[C@]3(C)[C@@H]([C@H](C)CCCC(C)(C)O)CC[C@@H]23)C[C@@H]1F [Example 13, (1R,3S,5Z,7E,17β)-3-fluoro-17-[(1R)-5-hydroxy-1,5-dimethylhexyl]-2-methylene-9,10-secoestra-5,7-dien-1-ol]
11 | 0.03 | 0.02 |  | 0.6 | 9 |  | 0.04 | 5.1 |  |  | C=C1[C@H](O)CC(=C/C=C2\CCC[C@]3(C)[C@@H]([C@H](C)COC(=O)C(C)(C)O)CC[C@@H]23)C[C@H]1O [Example 14, (2S)-2-[(1R,3R,7E,17β)-1,3-dihydroxy-2-methylene-9,10-secoestra-5,7-dien-17-yl]propyl 2-hydroxy-2-methylpropanoate]
12 | 0.04 |  |  | 0.4 | 1.2 |  | 0.01 | 10.7 |  | inactive | C[C@H](CC[C@@H](C)C(C)(C)O)[C@H]1CC[C@H]2/C(=C/C=C3C[C@@H](O)C[C@H](O)C3)CCC[C@]12C [Example 15, (1R,3R,7E,17β)-17-[(1R,4R)-5-hydroxy-1,4,5-trimethylhexyl]-9,10-secoestra-5,7-diene-1,3-diol]
13 | 0.1 |  |  | 11.3 | 10 |  |  |  |  |  | C=C1[C@H](O)C/C(=C\C=C2/CCC[C@]3(C)[C@@H]([C@H](C)CCCC(C)(C)O)CC[C@@H]23)C[C@@H]1F [Example 18, (1R,3S,5E,7E,17β)-3-fluoro-17-[(1R)-5-hydroxy-1,5-dimethylhexyl]-2-methylene-9,10-secoestra-5,7-dien-1-ol]
